Laboratory results reported in US11634388B2 (Chengdu Easton Biopharmaceuticals Co., Ltd., priority 2018, dated 2023).
Counter-ions that a name gives are not always drawn.

Tests used:
[1] = Pharmacokinetic study in rats; assay type: in vivo; details: male, rat, plasma, po; SD rats, intragastric 10 mg/kg, suspension in oil, mean ± SD
Description: About 20 mg of the test drug was taken, added into 8 mL of vegetable oil and shaken well, to prepare a 2.5 mg/mL suspension.
6 SD rats, all males, 200-220 g, provided by Chengdu Dashuo Biotechnology Co., Ltd.
The rats were intragastrically administrated with 10 mg/kg of the drug. Before administration and at 5 min, 15 min, 30 min, 1 h, 2 h, 4 h, 6 h, 8 h, 24 h after administration, 0.2 mL of jugular blood was taken and placed in EDTA-K2 anticoagulant tube, centrifuged for 10 min at 3000 r/min. The plasma was separated and frozen in the refrigerator at −80° C. After all blood collections were completed, the blood drug concentration in each blood sample was analyzed and determined autonomously, and the parameters of the test drugs (Tmax, time to maximum plasma concentration; Cmax, maximum plasma concentration; AUClast) were calculated.

[2] = Stability study of crystal form (XRPD before and after placement); assay type: physicochemical
[3] = Determination of the dissolution rate (500 ml medium, 37° C., 50 r/min, HPLC); assay type: physicochemical
Description: (50 r/min). At 5 min, 10 min, 15 min, 20 min, 30 min, 45 min and 60 min, the concentrations of lenvatinib in the medium were determined by using high performance liquid chromatography.

[4] = prior art WO2018164436; cited from earlier work
[5] = pH 1.0 medium (hydrochloric acid), 5 min
[6] = pH 6.8 medium (potassium dihydrogen phosphate buffer), 5 min

Row | SMILES | concentration of lenvatinib in the medium [3, 5] [µg/mL] | concentration of lenvatinib in the medium ([3]; pH 1.0 medium, 10 min) [µg/mL] | concentration of lenvatinib in the medium ([3]; pH 1.0 medium, 15 min) [µg/mL] | concentration of lenvatinib in the medium ([3]; pH 1.0 medium, 20 min) [µg/mL] | concentration of lenvatinib in the medium ([3]; pH 1.0 medium, 30 min) [µg/mL] | concentration of lenvatinib in the medium ([3]; pH 1.0 medium, 45 min) [µg/mL] | concentration of lenvatinib in the medium ([3]; pH 1.0 medium, 60 min) [µg/mL] | concentration of lenvatinib in the medium [3, 6] [µg/mL] | concentration of lenvatinib in the medium ([3]; pH 6.8 medium, 10 min) [µg/mL] | concentration of lenvatinib in the medium ([3]; pH 6.8 medium, 15 min) [µg/mL] | concentration of lenvatinib in the medium ([3]; pH 6.8 medium, 20 min) [µg/mL] | concentration of lenvatinib in the medium ([3]; pH 6.8 medium, 30 min) [µg/mL] | concentration of lenvatinib in the medium ([3]; pH 6.8 medium, 45 min) [µg/mL] | concentration of lenvatinib in the medium ([3]; pH 6.8 medium, 60 min) [µg/mL] | also measured
1 | COc1cc2nccc(Oc3ccc(NC(=O)NC4CC4)c(Cl)c3)c2cc1C(N)=O [Crystal form X, lenvatinib mesylate] | 1480 | 1540 | 1540 | 1520 | 1560 | 1570 | 1600 | 3.6 | 3.8 | 3.9 | 3.9 | 3.9 | 3.9 | 4 | AUC(0-t) [1]: 90.9 ± 19.6 µg·h/mL; Cmax [1]: 9.87 µg/mL; Tmax [1]: 1.17 ± 0.41 h; crystal transformation before and after the stability tests ([2]; all conditions of Table 4): did not undergo crystal transformation; Result of crystal form (XRPD) ([2]; high humidity 25° C., RH 93.5%, 1 month): No obvious change; Result of crystal form (XRPD) ([2]; high humidity 25° C., RH 93.5%, 7 days): No obvious change; Result of crystal form (XRPD) ([2]; strong light illumination, 7 days): No obvious change; Result of crystal form (XRPD) ([2]; temperature 2~8° C., 10 days): No obvious change
2 | COc1cc2nccc(Oc3ccc(NC(=O)NC4CC4)c(Cl)c3)c2cc1C(N)=O [crystal form M, lenvatinib mesylate] |  |  |  |  |  |  |  |  |  |  |  |  |  |  | solubility [4]: not evidently improved
3 | COc1cc2nccc(Oc3ccc(NC(=O)NC4CC4)c(Cl)c3)c2cc1C(N)=O [Crystal form C, lenvatinib mesylate, reference compound] | 410 | 470 | 520 | 550 | 610 | 670 | 720 | 2.7 | 3 | 3.1 | 3.2 | 3.3 | 3.4 | 3.5 | 
